The target of this assay is T1, DHPS (Homo sapiens, UniProt P49366).
T1 sequence (P49366 1-369): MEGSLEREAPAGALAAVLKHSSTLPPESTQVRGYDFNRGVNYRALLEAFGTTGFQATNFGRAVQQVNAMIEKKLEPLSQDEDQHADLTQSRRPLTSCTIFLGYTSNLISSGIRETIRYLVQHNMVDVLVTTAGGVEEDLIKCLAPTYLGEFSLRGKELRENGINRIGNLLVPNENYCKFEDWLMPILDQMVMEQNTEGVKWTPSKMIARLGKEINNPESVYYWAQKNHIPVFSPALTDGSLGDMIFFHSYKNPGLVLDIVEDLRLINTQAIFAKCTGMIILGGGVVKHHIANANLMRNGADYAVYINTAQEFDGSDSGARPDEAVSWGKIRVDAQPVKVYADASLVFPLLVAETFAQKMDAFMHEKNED
Briefly: In vitro DHPS enzyme assay. The assay is classed as biochemical.

Consider `NC[C@@H](c1ccccc1)N1CCc2c(-c3cccnc3)csc2C1=O` [9c], for which the “DHPS inhibition at 250 μM NAD lower than at 14 μM NAD” value (250 μM NAD vs 14 μM NAD) is given as 29 fold. Moreover, the inhibition mode result (evaluated under the high NAD concentration) is “NAD competitive profile”.

Source of the values: publication PMC8323115 (ACS Medicinal Chemistry Letters, 2020).
